In general, Ki refers to the equilibrium dissociation constant of an inhibitor or competing ligand from its target. For orientation: melting point means the temperature of the solid-liquid transition.

Where two headings read alike, the source gives them in different places.

Data set [1] has as its target T1, α1a-AR (Homo sapiens, UniProt P35348).
T1 construct: expressed in transfected cells; host or cells: COS-7
T1 sequence (P35348 1-466): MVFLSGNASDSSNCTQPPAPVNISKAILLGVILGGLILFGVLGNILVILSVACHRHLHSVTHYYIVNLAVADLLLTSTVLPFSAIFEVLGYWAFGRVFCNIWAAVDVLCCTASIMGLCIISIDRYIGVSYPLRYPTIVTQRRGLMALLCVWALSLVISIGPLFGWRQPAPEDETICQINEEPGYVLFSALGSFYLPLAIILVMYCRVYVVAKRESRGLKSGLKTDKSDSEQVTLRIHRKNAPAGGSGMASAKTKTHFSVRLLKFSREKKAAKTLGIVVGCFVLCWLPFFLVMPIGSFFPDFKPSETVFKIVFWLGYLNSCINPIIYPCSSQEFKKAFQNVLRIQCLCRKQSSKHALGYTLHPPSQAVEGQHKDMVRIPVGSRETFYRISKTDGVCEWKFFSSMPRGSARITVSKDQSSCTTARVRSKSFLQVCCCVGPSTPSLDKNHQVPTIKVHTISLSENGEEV
Nature of the data set: α1-Adrenergic receptor radio-ligand (125I-HEAT) binding assay, α1a subtype. The conditions noted are these: COS-7 cell membranes transfected with α1a-AR, 125I-HEAT 50 pM. Summed up: (§1)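 Membranes from COS-7 cells transfected with a single α1-AR subtype, incubated 1 h at rt with 50 pM 125I-HEAT and compound (1 pM–10 µM, half-log steps, final) in Tris/EDTA/NaCl pH 7.4. Bound radioactivity collected by GF/C filtration and scintillation counting, triplicates; Ki derived.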

Data set [2] concerns the target T2, α1d-AR (Homo sapiens, UniProt P25100).
T2 construct: expressed in transfected cells; host or cells: COS-7
T2 sequence (P25100 1-572): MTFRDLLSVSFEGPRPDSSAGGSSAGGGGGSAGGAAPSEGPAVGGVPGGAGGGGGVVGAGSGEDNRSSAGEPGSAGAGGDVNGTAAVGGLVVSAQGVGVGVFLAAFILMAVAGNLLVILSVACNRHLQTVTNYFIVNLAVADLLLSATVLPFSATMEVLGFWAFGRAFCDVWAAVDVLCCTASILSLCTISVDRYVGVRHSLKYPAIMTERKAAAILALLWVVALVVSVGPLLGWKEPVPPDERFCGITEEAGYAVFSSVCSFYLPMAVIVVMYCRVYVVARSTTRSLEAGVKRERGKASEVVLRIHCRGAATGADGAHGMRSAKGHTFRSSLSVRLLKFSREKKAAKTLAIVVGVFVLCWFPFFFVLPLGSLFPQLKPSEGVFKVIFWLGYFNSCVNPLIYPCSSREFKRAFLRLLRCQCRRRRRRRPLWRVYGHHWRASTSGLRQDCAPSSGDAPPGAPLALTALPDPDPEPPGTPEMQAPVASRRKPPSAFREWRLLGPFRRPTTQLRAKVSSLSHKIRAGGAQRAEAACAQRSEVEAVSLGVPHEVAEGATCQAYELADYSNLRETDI
Description: α1-Adrenergic receptor radio-ligand (125I-HEAT) binding assay, α1d subtype. The note with it: COS-7 cell membranes transfected with α1d-AR, 125I-HEAT 50 pM. A digest of the protocol:
as §1

Data set [3] deals with T3, α1b-AR (Homo sapiens, UniProt P35368).
T3 construct: expressed in transfected cells; host or cells: COS-7
T3 sequence (P35368 1-520): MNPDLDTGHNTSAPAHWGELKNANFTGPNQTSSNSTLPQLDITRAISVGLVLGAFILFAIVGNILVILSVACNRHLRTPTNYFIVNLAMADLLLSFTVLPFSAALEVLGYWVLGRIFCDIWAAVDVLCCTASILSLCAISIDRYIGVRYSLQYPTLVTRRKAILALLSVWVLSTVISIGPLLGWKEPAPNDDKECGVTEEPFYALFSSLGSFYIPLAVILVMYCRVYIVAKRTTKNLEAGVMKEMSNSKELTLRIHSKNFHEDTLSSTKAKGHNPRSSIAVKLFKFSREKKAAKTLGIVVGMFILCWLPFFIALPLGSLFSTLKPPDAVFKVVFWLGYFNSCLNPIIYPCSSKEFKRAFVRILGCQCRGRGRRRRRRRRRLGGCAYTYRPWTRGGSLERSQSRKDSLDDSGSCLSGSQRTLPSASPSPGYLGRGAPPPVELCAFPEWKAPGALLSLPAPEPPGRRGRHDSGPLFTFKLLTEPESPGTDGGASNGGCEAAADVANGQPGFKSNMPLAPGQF
Nature of the data set: α1-Adrenergic receptor radio-ligand (125I-HEAT) binding assay, α1b subtype. The conditions noted are these: COS-7 cell membranes transfected with α1b-AR, 125I-HEAT 50 pM. Summed up: as §1

[4] abbreviates: read-out: Receptor Binding, Ki α1a-AR.
Setting [5] is: read-out: Receptor Binding, Ki α1d-AR.
The mark [6] stands for this setting: read-out: Receptor Binding, Ki α1b-AR.

In the case of `CCCCCCCCc1ccc(CNc2ccc3c(c2)CCN3C(=O)c2cccc(CN3CCN(c4ccccc4OC(C)C)CC3)c2)cc1` [Cpd 23, {3-[4-(2-isopropoxy-phenyl)-piperazin-1-ylmethyl]-phenyl}-[5-(4-octyl-benzylamino)-2,3-dihydro-indol-1-yl]-methanone], the melting point was in the range of 116 to 118 °C. Besides, in data set [1] (setting [4]), the Ki was 195 nM. Also, the Ki in data set [2] (setting [5]) worked out at 317 nM.
The compound `CC(C)Oc1ccccc1N1CCN(Cc2cccc(C(=O)N3CCc4ccc(NCc5c(F)cccc5F)cc43)c2)CC1` [Cpd 6, [6-(2,6-difluoro-benzylamino)-2,3-dihydro-indol-1-yl]-{3-[4-(2-isopropoxy-phenyl)-piperazin-1-ylmethyl]-phenyl}-methanone] displayed a melting point of 137 to 139 °C. In addition, the Ki in data set [1] (setting [4]) worked out at 2 nM. Also, in data set [3] (setting [6]), the Ki was 856 nM. Also, the Ki in data set [2] (setting [5]) was found to be 2.4 nM.
For the compound `CCOC(OCC)c1ccc(CNc2ccc3c(c2)N(C(=O)c2cccc(CN4CCN(c5ccccc5OC(C)C)CC4)c2)CC3)cc1` [Cpd 11], the melting point lay within 156 to 160 °C. For the same compound, the inhibition constant Ki in data set [1] (setting [4]) was 5 nM. In addition, the Ki in data set [3] (setting [6]) came to 6260 nM. For the same compound, the Ki in data set [2] (setting [5]) stood at 7 nM.
On the same counts, the results for `COc1cccc(OC)c1CNc1ccc2c(c1)CCN2C(=O)c1cccc(CN2CCN(c3ccccc3OC(C)C)CC2)c1` [Cpd 25, [5-(2,6-dimethoxy-benzylamino)-2,3-dihydro-indol-1-yl]-{3-[4-(2-isopropoxy-phenyl)-piperazin-1-ylmethyl]-phenyl}-methanone] are 79 to 81 °C, 67 nM, 1300 nM and 18 nM.
For `CC(C)Oc1ccccc1N1CCN(Cc2cccc(C(=O)N3CCc4cc(NS(=O)(=O)c5cccc6c(N(C)C)cccc56)ccc43)c2)CC1` [Cpd 3, 5-dimethylamino-naphthalene-1-sulfonic acid (1-{3-[4-(2-isopropoxy-phenyl)-piperazin-1-ylmethyl]-benzoyl}-2,3-dihydro-1H-indol-5-yl)-amide], in that order: 80 to 83 °C, 65 nM, 3450 nM and 98 nM.
`CC(=O)Nc1ccc(S(=O)(=O)Nc2ccc3c(c2)CCN3C(=O)c2cccc(CN3CCN(c4ccccc4OC(C)C)CC3)c2)cc1` [Cpd 19, N-[4-(1-{3-[4-(2-isopropoxy-phenyl)-piperazin-1-ylmethyl]-benzoyl}-2,3-dihydro-1H-indol-5-ylsulfamoyl)-phenyl]-acetamide] came in with a melting point of 132 to 134 °C. Further, in data set [1] (setting [4]), the Ki was found to be 26 nM. Further, the Ki in data set [3] (setting [6]) was determined as 383 nM. Also, in data set [2] (setting [5]), the Ki was 2.3 nM.
On to `Cc1c(S(=O)(=O)Nc2ccc3c(c2)N(C(=O)c2cccc(CN4CCN(c5ccccc5OC(C)C)CC4)c2)CC3)sc2ccc(Cl)cc12` [Cpd 18, 5-chloro-3-methyl-benzo[b]thiophene-2-sulfonic acid (1-{3-[4-(2-isopropoxy-phenyl)-piperazin-1-ylmethyl]-benzoyl}-2,3-dihydro-1H-indol-6-yl)-amide], for which the melting point lay in the range of 192 to 195 °C. Further, the Ki in data set [1] (setting [4]) is 0.04 nM. For the same compound, the Ki in data set [3] (setting [6]) turned out to be 43 nM. Further, in data set [2] (setting [5]), the Ki was determined as 4 nM.
In the case of `CC(C)Oc1ccccc1N1CCN(Cc2cccc(C(=O)N3CCc4cc(N)ccc43)c2)CC1` [Cpd 1, (5-amino-2,3-dihydro-indol-1-yl)-{3-[4-(2-isopropoxy-phenyl)-piperazin-1-ylmethyl]-phenyl}-methanone], the melting point is 137 to 139 °C. The inhibition constant Ki in data set [1] (setting [4]) came to 1.5 nM. For the same compound, in data set [3] (setting [6]), the Ki came to 301 nM. Besides, the inhibition constant Ki in data set [2] (setting [5]) came out at 8.6 nM.
Regarding `CC(C)Oc1ccccc1N1CCN(Cc2cccc(C(=O)N3CCc4cc(NS(=O)(=O)c5ccc6ccccc6c5)ccc43)c2)CC1` [Cpd 2, naphthalene-2-sulfonic acid (1-{3-[4-(2-isopropoxy-phenyl)-piperazin-1-ylmethyl]-benzoyl}-2,3-dihydro-1H-indol-5-yl)-amide], the melting point lay in the range of 73 to 76 °C. Moreover, the Ki in data set [1] (setting [4]) worked out at 1.1 nM. Moreover, in data set [3] (setting [6]), the inhibition constant Ki turned out to be 321 nM. Besides, in data set [2] (setting [5]), the inhibition constant (Ki) came to 9.7 nM.
`CC(C)Oc1ccccc1N1CCN(Cc2cccc(C(=O)N3CCc4cc(NCc5ccc(C(F)(F)F)cc5)ccc43)c2)CC1` [Cpd 8, {3-[4-(2-isopropoxy-phenyl)-piperazin-1-ylmethyl]-phenyl}-[5-(4-trifluoromethyl-benzylamino)-2,3-dihydro-indol-1-yl]-methanone] registered a melting point of 74 to 76 °C. The Ki in data set [1] (setting [4]) is 14 nM. Besides, in data set [3] (setting [6]), the Ki amounted to 389 nM. For the same compound, the inhibition constant (Ki) in data set [2] (setting [5]) came to 15 nM.
Consider `CCOC(OCC)c1ccc(CNc2ccc3c(c2)CCN3C(=O)c2ccc(CN3CCC(c4ccccc4OC)CC3)cc2)cc1` [Cpd 36, [5-(4-diethoxymethyl-benzylamino)-2,3-dihydro-indol-1-yl]-{4-[4-(2-methoxy-phenyl)-piperidin-1-ylmethyl]-phenyl}-methanone], for which the inhibition constant (Ki) was 39.2 nM in data set [1] (setting [4]), 1010 nM in data set [3] (setting [6]) and 40.2 nM in data set [2] (setting [5]).
Regarding `COc1ccccc1CN1CCN(Cc2cccc(C(=O)N3CCc4ccccc43)c2)CC1` [Cpd 64, (2,3-dihydro-indol-1-yl)-{3-[4-(2-methoxy-benzyl)-piperazin-1-ylmethyl]-phenyl}-methanone], the Ki was 105 nM in data set [1] (setting [4]), 146 nM in data set [3] (setting [6]) and 101 nM in data set [2] (setting [5]).
For `COc1ccccc1C1CCN(Cc2ccc(C(=O)N3CCc4ccc([N+](=O)[O-])cc43)cc2)CC1` [Cpd 35, {4-[4-(2-methoxy-phenyl)-piperidin-1-ylmethyl]-phenyl}-(6-nitro-2,3-dihydro-indol-1-yl)-methanone], in that order: 5.3 nM, 201 nM and 8.5 nM.
In the case of `Cc1ccc(OC(=O)Nc2ccc3c(c2)N(C(=O)c2cccc(CN4CCN(c5ccccc5OC(C)C)CC4)c2)CC3)cc1` [Cpd 12, (1-{3-[4-(2-isopropoxy-phenyl)-piperazin-1-ylmethyl]-benzoyl}-2,3-dihydro-1H-indol-6-yl)-carbamic acid p-tolyl ester], the Ki is 3.3 nM in data set [1] (Receptor Binding, Ki α1a-AR); 495 nM in data set [3] (Receptor Binding, Ki α1b-AR); 5.7 nM in data set [2] (Receptor Binding, Ki α1d-AR).
As for `CC(C)Oc1ccccc1N1CCN(Cc2cccc(C(=O)N3CCc4ccc(NC(=O)Nc5ccccc5)cc43)c2)CC1` [Cpd 22, 1-(1-{3-[4-(2-isopropoxy-phenyl)-piperazin-1-ylmethyl]-benzoyl}-2,3-dihydro-1H-indol-6-yl)-3-phenyl-urea], the inhibitory constant (Ki) in data set [1] (setting [4]) amounted to 39 nM; in data set [3] (setting [6]), 251 nM; in data set [2] (setting [5]), 5 nM.
